Measured values: patent US20020115661A1, “Method for treating chronic obstructive pulmonary disease” (priority 2000, published 2002)
Read-outs that look alike come from different tables or passages of the source.

Tests used:
[1] = Pharmacokinetics in dogs; format: in vivo; details: dog
[2] = Food effect (high-fat meal) single-dose study in healthy subjects; format: in vivo, human; details: for Tmax: human, plasma, oral, 150 mg
[3] = Distribution, plasma protein binding and excretion; format: in vivo
[4] = Oral rising single-dose pharmacokinetic study in healthy subjects; format: in vivo, human
[5] = PO bioavailability in monkeys; details: monkey, in vivo
[6] = Dissociation constant by potentiometric titration in water; format: physicochemical; details: carboxylic acid group, read-out: apparent pKa
[7] = system: anesthetized dogs; test: Pulmonary function in anesthetized dogs; format: in vivo, dog
Method: Each animal received each treatment and served as its own control, with 7 days between treatments. […] Pulmonary function parameters were evaluated for 60 minutes after each dose, and included minute volume, respiratory rate, resistance, compliance, peak inspiratory and expiratory volumes, and tidal volume. Indirect blood pressure measurements were made periodically throughout the pulmonary data collection period since endothelin receptor antagonists are known to induce hypotension.
Plasma concentration in this dog 5 minutes postdose was 1960 μg/mL.

[8] = Plasma CI-1034 concentrations in anesthetized dogs; format: in vivo; details: intravenous, dog; for concentration at 15 min: 15 minutes postdose; for concentration at 30 min: 30 minutes postdose; for concentration at 60 min: 60 minutes postdose
[9] = target: T1, dog ETA receptors (Canis lupus familiaris, UniProt Q5KSU9); test: [125I]ET-1 binding, membranes from dog cardiac ventricle
T1 construct: from tissue
T1 sequence (Q5KSU9 21-426): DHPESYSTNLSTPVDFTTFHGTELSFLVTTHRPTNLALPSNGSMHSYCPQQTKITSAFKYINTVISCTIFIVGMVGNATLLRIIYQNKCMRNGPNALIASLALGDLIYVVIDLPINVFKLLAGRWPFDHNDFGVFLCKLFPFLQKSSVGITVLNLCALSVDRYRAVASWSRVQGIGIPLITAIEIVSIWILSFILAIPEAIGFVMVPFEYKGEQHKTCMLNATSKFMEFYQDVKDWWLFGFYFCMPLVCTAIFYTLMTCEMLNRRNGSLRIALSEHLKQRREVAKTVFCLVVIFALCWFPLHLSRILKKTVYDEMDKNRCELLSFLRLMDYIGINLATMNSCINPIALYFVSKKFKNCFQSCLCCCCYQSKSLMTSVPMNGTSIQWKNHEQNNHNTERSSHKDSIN
Description: (§1) Relative binding activities are given below in TABLE 3.

[10] = system: healthy subjects; test: Tolerance and safety in Phase 1 studies in healthy subjects; format: in vivo, human
[11] = target: T2, dog ETB receptors (Canis lupus familiaris, UniProt P56497); test: [125I]ET-3 binding, membranes from dog cerebellum
T2 construct: from tissue
T2 sequence (P56497 27-442): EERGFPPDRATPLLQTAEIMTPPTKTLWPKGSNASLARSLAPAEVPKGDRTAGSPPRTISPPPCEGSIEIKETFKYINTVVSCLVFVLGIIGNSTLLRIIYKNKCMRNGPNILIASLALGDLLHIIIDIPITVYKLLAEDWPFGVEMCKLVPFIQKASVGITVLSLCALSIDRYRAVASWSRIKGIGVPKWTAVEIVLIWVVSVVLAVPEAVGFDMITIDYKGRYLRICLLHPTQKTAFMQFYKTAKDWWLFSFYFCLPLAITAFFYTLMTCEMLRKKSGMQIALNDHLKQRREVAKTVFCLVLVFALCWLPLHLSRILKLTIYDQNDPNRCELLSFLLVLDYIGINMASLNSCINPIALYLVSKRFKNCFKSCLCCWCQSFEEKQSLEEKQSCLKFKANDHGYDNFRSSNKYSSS
Description: as §1

[12] = Octanol-aqueous partition coefficient, shake-flask method with HPLC; format: physicochemical
Method: Partition Coefficient: The octanol-aqueous partition coefficient at various pH values was determined by the shake-flask method using HPLC for measurement of the amount of compound in each phase.

[13] = system: acute hypoxia-induced pulmonary hypertension; test: Pulmonary hypertension in response to acute hypoxia in rats; format: in vivo, rat
Method: Exposure to hypoxia produces an acute pulmonary hypertensive response in the rat. […] The hypothesis has since been tested through blockade of the hypertensive response with several ET antagonists. The antihypertensive dose of CI-1034 was determined in response to acute hypoxia.
Heparinized plasma samples were collected 10 minutes after the final MPAP measurement was made.

[14] = anesthetized dogs, 30 or 60 mg/kg

In the case of `CCc1cc(C2=C(C(=O)[O-])N(c3ccccc3C(F)(F)F)S(=O)(=O)c3ccccc32)cc2c1OCO2.[K+]` [CI-1034, 4-(7-Ethyl-1,3-benzodioxol-5-yl)-2-[2-(trifluoromethyl)phenyl]-2H-1 ,2-benzothiazine-3-carboxylic acid 1,1-dioxide monopotassium salt], the bioavailability ([1]; in vivo, po, dogs) is reported as ~100%, the “increase of plasma concentrations with dose” value ([1]; up to 100 mg/kg) is reported as “approximately proportional to dose” and the Tmax ([2]; fasted state) is reported as 1.26 h. For the same compound, the Tmax ([2]; with high-fat meal) was 3.5 h, the “mean AUC(0-∞) lower with high-fat breakfast versus fasted” value ([2]; single dose) was “approximately 16%” and the “mean Cmax lower with high-fat breakfast versus fasted” value ([2]; single dose) was “approximately 50%”. The “tissue distribution of radioequivalents” value ([3]; highest concentrations in liver and blood) was “not widely distributed”, the plasma protein binding ([3]; in vivo) was “highly bound” and the “Renal excretion of unchanged CI-1034” value ([4]; Study 1034-001) was < 3 % of the dose. The half-life ([4]; human, plasma, oral, 400-mg dose, read-out: additional elimination half-life (converted)) was ~13 h, the half-life ([4]; human, plasma, single oral doses, Study 1034-001, read-out: elimination half-life (t½)) was 2 to 4 h and the Tmax ([4]; human, plasma, single oral doses, Study 1034-001, read-out: time to maximal plasma concentrations (tmax)) was 1 to 3 h. For the same compound, the “Cmax and AUC(0-∞) with increasing dose” value ([4]; single oral doses) was “slightly more than proportional increases”, the bioavailability [5] was ~10% and the pKa [6] was 3.9. The “effects on pulmonary function” value ([7]; anesthetized dog, 40 mg/kg intravenous, one animal) was “No effects were apparent”, the pulmonary finding ([7]; anesthetized dog, 180 mg/kg intravenous, within 5 minutes postdose, one animal) was “Respiratory arrest” and the “effect on blood pressure” value [7, 14] was “no significant effect”. The “effect on minute volume, pulmonary resistance, or pulmonary compliance” value [7, 14] was “no effect”, the “histopathology, lungs” value ([7]; dog that died after 180 mg/kg) was “marked bilateral diffuse congestion” and the “histopathology, coronary arteries” value ([7]; dog that died after 180 mg/kg, mild, primarily right coronary arteries) was “Arteriopathy”. The mortality ([7]; dog, 180 mg/kg intravenous, one animal) was “found dead on Day 3”, the concentration at 15 min ([8]; 30 mg/kg) was 221 µg/mL and the concentration at 30 min ([8]; 30 mg/kg) was 209 µg/mL. It also gave a concentration at 60 min ([8]; 30 mg/kg) of 157 µg/mL, a concentration at 5 min ([8]; 40 mg/kg, 5 minutes postdose, N = 1) of 395 µg/mL and a concentration at 15 min ([8]; 40 mg/kg, N = 1) of 327 µg/mL. It also gave a concentration at 30 min ([8]; 40 mg/kg, N = 1) of 267 µg/mL, a concentration at 60 min ([8]; 40 mg/kg, N = 1) of 230 µg/mL and a concentration at 15 min ([8]; 60 mg/kg) of 427 µg/mL. The concentration at 30 min ([8]; 60 mg/kg) was 367 µg/mL, the concentration at 60 min ([8]; 60 mg/kg) was 337 µg/mL and the IC50 [9] was 2 nM. The QTc intervals [10] was “No prolonged QTc intervals”, the “most frequent adverse events” value [10] was “headache, somnolence, nausea, and dyspepsia” and the serious adverse events [10] was “no treatment-related serious adverse events”. For the same compound, the “changes in C-reactive protein” value ([10]; Study 1034-001) was “no significant changes”, the tolerance ([10]; single 400 mg dose with single 2-mg dose of midazolam syrup, Study 1034-005) was “well-tolerated” and the tolerance ([10]; single 150-mg doses with or without a high-fat breakfast, Study 1034-004) was “well-tolerated”. The tolerance ([10]; single doses up to 400 mg, Study 1034-001) was “well-tolerated”, the laboratory abnormalities ([10]; sporadic and transient) was “unrelated to CI-1034 administration” and the “intensity of adverse reactions” value ([10]; transient) was “mild or moderate”. For the same compound, the IC50 [11] was 329 nM, the logD ([12]; pH 1, 0.1N Hydrochloric Acid) was 3.24 and the logD ([12]; pH 4, 0.05 M Sodium Acetate Buffer) was 2.93. The logD ([12]; pH 7.4, 0.05 M Potassium Phosphate Buffer) was 0.56, the ED50 ([13]; Rattus norvegicus, rats, PO, relative to hypoxic control, read-out: ED50, inhibition of acute pulmonary hypertensive response) was 0.8 mg/kg and the EC50 ([13]; Rattus norvegicus, simple Emax model, acute hypoxia, read-out: plasma concentration predicted to produce half-maximal effect) was 0.03 ± 0.03 µg/mL. For the same compound, the “reduction of peak pulmonary hypertensive response at 4 hours” value ([13]; rats, 0.3 mg/kg PO 30 minutes before hypoxia (10% O2)) was 34%±1%, the “reduction of peak pulmonary hypertensive response at 4 hours” value ([13]; rats, 3.0 mg/kg PO 30 minutes before hypoxia (10% O2)) was 70%±3% and the “predicted maximal antihypertensive effect” value ([13]; simple Emax model, acute hypoxia) was 81%±23%.
